# In patent US6281342A, “Pradimicin compounds” (Bristol-Myers Squibb Company, priority 1994, dated 2001):
# Like-named read-outs stand apart in the source and are kept apart here.
# What was measured:
# [1] = tested on: Candida albicans 83-2-14; experiment: MIC, two-fold agar dilution, C. albicans 83-2-14; format: cell-based; settings: 83214, YMA pH 7.0, 28° C., 40 hours
# Protocol: (§1) Minimum inhibitory concentrations (MICs) of nine 4'-N-substituted pradimicin derivatives were determined by two-fold agar dilution method on phosphate-buffered yeast morphology agar (YMA, pH 7.0, Difco Laboratories). A 5-μl of fungal cell suspension containing 2×10^6 cells/ml (2×10^7 cells/ml for Trichophyton mentagrophytes) were spotted on the surface of the agar plates containing test compound. MICs were recorded after 40-hour incubation at 28° C. except for T. mentagrophytes, which required 60-hour incubation to produce visually evaluable growth on the drug-free control plates and were defined as the lowest antibiotic concentrations showing no growth or less than five discrete colonies per spot.
# (§2) Medium: yeast morphology agar + 1/15 M phosphate buffer (pH 7.0)
# (§3) Incubation conditions: 28° C., 40 hours (C. albicans ATCC 38247 & T.
# (§4) Medium: Yeast morphology agar + 1/15 phosphate buffer (pH 7.0).
# [2] = tested on: Candida tropicalis 85-8; experiment: MIC, two-fold agar dilution, C. tropicalis 85-8; format: cell-based; settings: 858, YMA pH 7.0, 28° C., 40 hours
# Protocol: as §1, §2, §3, §4
# [3] = tested on: Candida albicans A9540; experiment: MIC, two-fold agar dilution, C. albicans A9540; format: cell-based
# Protocol: as §1, §2, §3, §4
# [4] = tested on: Candida albicans ATCC 38247; experiment: MIC, two-fold agar dilution, C. albicans ATCC 38247; format: cell-based; settings: ATCC38247, YMA pH 7.0, 28° C., 60 hours (table footnote)
# Protocol: as §1, §2, §3
# (§5) mentagrophytes #4329: 28° C., 60 hours).
# as §4
# [5] = tested on: Candida albicans ATCC 32354; experiment: MIC, two-fold agar dilution, C. albicans ATCC 32354; format: cell-based; settings: ATCC32354, YMA pH 7.0, 28° C., 40 hours
# Protocol: as §1, §2, §3, §4
# [6] = tested on: Aspergillus fumigatus IAM 2034; experiment: Therapeutic efficacy in Aspergillus fumigatus systemic infection in mice; format: in vivo, male ICR mice infected with Aspergillus fumigatus IAM 2034; settings: IAM2034, 480 h; for responders at 6.3 mg/kg: 6.3 mg/kg iv; for responders at 6.3 mg/kg / responders at 12.5 mg/kg / responders at 25 mg/kg / responders at 50 mg/kg: 20th day post-infection, read-out: S/T (No. of survivors/tested) (converted); for responders at 12.5 mg/kg: 12.5 mg/kg iv; for responders at 25 mg/kg: 25 mg/kg iv; for responders at 50 mg/kg: 50 mg/kg iv
# Protocol: (§6) The in vivo therapeutic efficacies of seven 4'-N-substituted pradimicin derivatives, KHM-1, KHM-2, KHM-3, KHM-4, KHM-5, KHM-6 and KHM-7 were evaluated in the mouse infected with Candida albicans A9540 and Aspergillus fumigatusIAM 2034. Groups of five specific-pathogen-free male ICR mice weighing 20-25 g at each dose level were intravenously infected with approximately 10 times the 50% lethal dose of C. albicans A9540 (1×10^6 cells/mouse) or A. fumigatus IAM 2034 (1×10^7 cells/mouse). Immediately after the fungal infection, test compounds dissolved with 10% DMSO in distilled water were intravenously given to the mouse at the dosed volume of 0.1 ml/10 g of body weight. […] Untreated control animals died 7 to 13 days post-infection.
# [7] = tested on: Candida albicans A9540; experiment: animal or person; format: in vivo, male ICR mice infected with Candida albicans A9540; settings: Candida albicans, A9540, 480 h, C. albicans, mice; for responders at 6.3 mg/kg: 6.3 mg/kg iv; for responders at 6.3 mg/kg / responders at 12.5 mg/kg / responders at 25 mg/kg / responders at 50 mg/kg: 20th day post-infection, read-out: S/T (No. of survivors/tested) (converted); for responders at 12.5 mg/kg: 12.5 mg/kg iv; for responders at 25 mg/kg: 25 mg/kg iv; for responders at 50 mg/kg: 50 mg/kg iv; for ED50: Table 2, iv, 95% confidence limits in parentheses, read-out: PD50 (50% protection dose)
# Protocol: as §6
# [8] = tested on: Candida albicans IAM 4888; experiment: MIC, two-fold agar dilution, C. albicans IAM 4888; format: cell-based; settings: IAM4888, YMA pH 7.0, 28° C., 40 hours
# Protocol: as §1, §2, §3, §4
# [9] = tested on: Aspergillus fumigatus IAM 2034; experiment: MIC, two-fold agar dilution, A. fumigatus IAM 2034; format: cell-based; settings: IAM2034
# Protocol: as §1, §2, §3, §4
# [10] = tested on: Candida tropicalis IFO 10241; experiment: MIC, two-fold agar dilution, C. tropicalis IFO 10241; format: cell-based; settings: IFO10241, YMA pH 7.0, 28° C., 40 hours
# Protocol: as §1, §2, §3, §4
# [11] = tested on: Saccharomyces cerevisiae ATCC 9763; experiment: MIC, two-fold agar dilution, S. cerevisiae ATCC 9763; format: cell-based; settings: ATCC9763, YMA pH 7.0, 28° C., 40 hours
# Protocol: as §1, §2, §3, §4
# [12] = tested on: Cryptococcus neoformans D49; experiment: MIC, two-fold agar dilution, C. neoformans D49; format: cell-based; settings: YMA pH 7.0, 28° C., 40 hours
# Protocol: as §1, §2, §3, §4
# [13] = tested on: Trichophyton mentagrophytes #4329; experiment: MIC, two-fold agar dilution, T. mentagrophytes #4329; format: cell-based
# Protocol: as §1, §2, §3, §5, §4
# [14] = Water solubility at neutral pH in PBS containing Ca^2+/Mg^2+; format: physicochemical; settings: pbs with ca2+/mg2+; Table 3; water-solubility at neutral pH in phosphate buffered saline containing Ca^2+/Mg^2+
# Protocol: The compounds of the invention have good water solubility. Typically, the water solubility is greater than 10 mg/ml when measured at neutral pH in PBS containing Ca^2+ /Mg^2+, preferably greater than 20 mg/ml.
# ^2) Water-solubility at neutral pH in phosphate buffered saline
# containing Ca^2+ /Mg^2+.
# [15] = tested on: Cryptococcus neoformans IAM 4514; experiment: MIC, two-fold agar dilution, C. neoformans IAM 4514; format: cell-based; settings: IAM4514
# Protocol: as §1, §2, §3, §4
# [16] = Candida albicans A9540, YMA pH 7.0, 28° C., 40 hours, read-out: MIC
# [17] = Table 3, Candida albicans A9540, YMA, read-out: MIC Ca-4
# [18] = Aspergillus fumigatus, A. fumigatus, mice
# [19] = Aspergillus fumigatus, Table 2, A. fumigatus, mice, iv, 95% confidence limits in parentheses, read-out: PD50 (50% protection dose)
# [20] = Aspergillus fumigatus IAM 2034, YMA pH 7.0, 28° C., 40 hours, read-out: MIC
# [21] = Table 3, Aspergillus fumigatus IAM 2034, YMA, read-out: MIC Af-3
# [22] = Table 3, Trichophyton mentagrophytes #4329, YMA, read-out: MIC TM-4
# [23] = Trichophyton mentagrophytes #4329, YMA pH 7.0, 28° C., 60 hours, read-out: MIC
# [24] = Cryptococcus neoformans IAM 4514, YMA pH 7.0, 28° C., 40 hours, read-out: MIC
# [25] = Table 3, Cryptococcus neoformans IAM 4514, YMA, read-out: MIC Cn-2
SMILES,MIC [1] [µg/mL],MIC [2] [µg/mL],"MIC [3, 16] [µg/mL]","MIC [3, 17] [µg/mL]",MIC [4] [µg/mL],MIC [5] [µg/mL],"responders at 6.3 mg/kg [6, 18] [%]","responders at 12.5 mg/kg [6, 18] [%]","responders at 25 mg/kg [6, 18] [%]","responders at 50 mg/kg [6, 18] [%]","ED50 [6, 19] [mg/kg]",responders at 6.3 mg/kg [7] [%],responders at 12.5 mg/kg [7] [%],responders at 25 mg/kg [7] [%],responders at 50 mg/kg [7] [%],ED50 [7] [mg/kg],MIC [8] [µg/mL],"MIC [9, 20] [µg/mL]","MIC [9, 21] [µg/mL]",MIC [10] [µg/mL],further results
"COc1cc(O)c2c(c1)C(=O)c1c(cc3c(c1O)-c1c(cc(C)c(C(=O)N[C@H](C)C(=O)O)c1O)[C@H](O[C@@H]1O[C@H](C)[C@H](NC#N)[C@H](O[C@@H]4OC[C@@H](O)[C@H](O)[C@H]4O)[C@H]1O)[C@H]3O)C2=O [KHM-2, 4'-N-Cyanopradimicin C]",6.3,12.5,3.1,3.1,1.6,3.1,0,20,40,60,27,20,40,80,100,13,3.1,3.1,3.1,12.5,"MIC [11]: 3.1 µg/mL; MIC [12]: 3.1 µg/mL; MIC [13, 22]: 12.5 µg/mL; MIC [13, 23]: 12.5 µg/mL; solubility [14]: > 20 mg/mL; MIC [15, 24]: 1.6 µg/mL; MIC [15, 25]: 1.6 µg/mL"
"COc1cc(O)c2c(c1)C(=O)c1c(cc3c(c1O)-c1c(cc(C)c(C(=O)N[C@H](CO)C(=O)O)c1O)[C@H](O[C@@H]1O[C@H](C)[C@H](NC#N)[C@H](O[C@@H]4OC[C@@H](O)[C@H](O)[C@H]4O)[C@H]1O)[C@H]3O)C2=O [KHM-4, 4'-N-Cyanopradimicin FA2]",6.3,12.5,6.3,6.3,3.1,3.1,0,0,0,0,> 50,0,20,60,80,20,6.3,6.3,6.3,12.5,"ED50 ([6]; Table 3, Aspergillus fumigatus IAM 2034, iv, read-out: PD50 (mice) Af-3): > 50 mg/kg; MIC [11]: 3.1 µg/mL; MIC [12]: 6.3 µg/mL; MIC [13, 22]: 12.5 µg/mL; MIC [13, 23]: 12.5 µg/mL; solubility [14]: > 20 mg/mL; MIC [15, 24]: 3.1 µg/mL; MIC [15, 25]: 3.1 µg/mL"
